{
  "source": "patent US20260207522A1",
  "about": "“YEAST CELL WALL PARTICLE ENCAPSULATION OF BIODEGRADABLE PRO-PAYLOADS” (UNIVERSITY OF MASSACHUSETTS, priority 2018, published 2026)",
  "key": {"[1]": {"experiment": "loading into yeast cell wall particles", "format": "physicochemical", "procedure": "To create encapsulated pro-payloads, water-insoluble pro-payloads are dissolved in a suitable solvent compatible with the glucan particles (e.g., dimethylsulfoxide, methanol, etc.). After loading the pro-payloads into glucan shells, the glucan particle pro-payload is processed to remove the solvent.\nThe pro-payload CS-AcA was dissolved in a suitable solvent and combined with extracted yeast cell wall particles to create encapsulated CS-AcA.\nThe pro-payload INH-LA was dissolved in a suitable solvent and combined with extracted yeast cell wall particles to create encapsulated INH-LA."}, "[2]": {"experiment": "in vitro release assay of naproxen from YCWPs", "format": "physicochemical", "conditions": "pH 7", "procedure": "The pro-payload Nap-An was dissolved in a suitable solvent and combined with extracted yeast cell wall particles to create encapsulated Nap-An."}, "[3]": {"tested_on": "S. cerevisiae", "conditions": "Bard et al.; cited from earlier work"}, "[4]": {"tested_on": "H. pylori", "conditions": "concentration of 2 mg/L; cited from earlier work"}, "[5]": {"tested_on": "C. albicans", "conditions": "Bard et al.; cited from earlier work"}},
  "data": [
    {"molecule": "N[C@@H]1CON=C1O", "note": "[CS, cycloserine]", "values": [
      {"measurement": "amount loaded into yeast cell wall particles", "setting": "[1]", "value": "≤ 14", "unit": "%"}
    ]},
    {"molecule": "NNC(=O)c1ccncc1", "note": "[INH, isoniazid]", "values": [
      {"measurement": "amount loaded into yeast cell wall particles", "setting": "[1]", "value": 0, "unit": "%"}
    ]},
    {"molecule": "CCCCCCCCCCCC(=O)NNC(=O)c1ccncc1", "note": "[INH-LA, isoniazid lauric acid]", "values": [
      {"measurement": "amount loaded into yeast cell wall particles", "setting": "[1]", "value": "up to 89%"}
    ]},
    {"molecule": "COc1ccc2cc(C(C)C(=O)OC(=O)C(C)c3ccc4cc(OC)ccc4c3)ccc2c1", "note": "(stereo not shown) [Nap-An, naproxen anhydride]", "values": [
      {"measurement": "50% release time (RT50)", "setting": "[2]", "value": "greater than 13.5 hours"}
    ]},
    {"molecule": "CC(C)=CCC/C(C)=C/CO", "note": "[geraniol]", "values": [
      {"measurement": "growth of S. cerevisiae strains", "setting": "[3]", "value": "inhibit the growth"},
      {"measurement": "in vitro growth of H. pylori", "setting": "[4]", "value": "inhibited"},
      {"measurement": "growth of C. albicans strains", "setting": "[5]", "value": "inhibit the growth"}
    ]},
    {"molecule": "cycloserine acetylacetone [CS-AcA]", "values": [
      {"measurement": "amount loaded into yeast cell wall particles", "setting": "[1]", "value": "≤ 70", "unit": "%"}
    ]},
    {"molecule": "doxorubicin-isoniazid [Dox-INH]", "values": [
      {"measurement": "amount loaded into yeast cell wall particles", "setting": "[1]", "value": "up to 61%"}
    ]},
    {"molecule": "doxorubicin-isophorone diisocyanate [Dox-IPDI]", "values": [
      {"measurement": "amount loaded into yeast cell wall particles", "setting": "[1]", "value": "up to 92%"}
    ]}
  ]
}
